Article PMC9246256, “Structure-based optimization of type III indoleamine 2,3-dioxygenase 1 (IDO1) inhibitors” (Journal of Enzyme Inhibition and Medicinal Chemistry, 2022)
Where “and” joins values, the source holds several entries; their conditions need not be identical. Equal entries are not always repeated. Entries after “also recorded” stand apart in the source; their conditions may differ. Where two headings read alike, the source gives them in different places.

Assays:
IDO1 = conditions: cited from earlier work
[1] = biological target: T1, purified recombinant IDO1 (Homo sapiens, UniProt P14902); assay: Enzymatic IDO1 inhibition assay (ascorbate/methylene blue reduction system, HPLC detection of kynurenine); assay type: biochemical; conditions: for IC50: enzymatic; for LE [kcal/mol/HA]: ligand efficiency, LE = -RT log(IC50)/number of heavy atoms, from enzymatic IC50
T1 construct: Full-length human IDO1 gene was cloned into the pET-28a vector; inferred from pET-28a vector and HisTrap purification; made in house; host or cells: E. coli Rosetta (DE3)
T1 sequence (P14902 whole entry): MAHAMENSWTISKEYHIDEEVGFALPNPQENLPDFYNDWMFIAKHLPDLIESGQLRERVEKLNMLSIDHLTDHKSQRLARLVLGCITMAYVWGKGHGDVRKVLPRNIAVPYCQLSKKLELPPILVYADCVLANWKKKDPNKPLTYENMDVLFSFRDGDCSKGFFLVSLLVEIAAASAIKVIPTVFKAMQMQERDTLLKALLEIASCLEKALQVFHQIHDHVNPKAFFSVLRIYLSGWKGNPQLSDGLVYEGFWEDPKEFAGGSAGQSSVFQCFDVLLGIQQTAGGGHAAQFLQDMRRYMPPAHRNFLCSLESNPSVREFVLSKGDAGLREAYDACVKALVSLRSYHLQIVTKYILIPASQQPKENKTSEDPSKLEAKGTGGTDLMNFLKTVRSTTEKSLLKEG
Experimental: Enzymatic IC50 values were measured with the ascorbate/methylene blue reduction system[85] in presence of a non-ionic detergent to reduce compound aggregation as described before[28]. Kynurenine and L-Trp concentrations were determined by HPLC through UV detection.
Full-length human IDO1 gene was cloned into the pET-28a vector and expressed in E. coli Rosetta (DE3) cells. […] The culture was harvested and frozen at −80 °C until further use. The frozen cells were lysed by sonication in 20 mM Tris pH 7, 400 mM NaCl, 1 mM MgCl2, 20 mM imidazole, 1 mM DTT, 0.5 mg/mL Lysozyme and Protease inhibitor. After centrifugation, the supernatant was loaded into a HisTrap HP column pre-equilibrated with buffer containing 20 mM Tris pH 7, 500 mM NaCl and 20 mM imidazole, and eluted with the same buffer containing 500 mM imidazole. Fractions containing IDO1 were pooled, concentrated, and injected on a size exclusion chromatography column (HiLoad Superdex S75 16/60) to increase purity. hIDO1 fractions were concentrated to 20 mg/mL in 20 mM Tris pH 7 and 150 mM NaCl.
The enzymatic inhibition assays were performed as described by Takikawa et al.[130] with some modifications. Briefly, the reaction mixture (100 µL) contained potassium phosphate buffer (100 mM, pH 6.5) ascorbic acid (20 mM), catalase (400 units/mL), methylene blue (10 µM), purified recombinant IDO1 (2.5 ng/µL), L-Trp (100 µM), Triton X-100 (0.01%) and DMSO (5 µL). The inhibitors were serially diluted 3-fold for at least 8 different concentrations. After incubation at room temperature for 20 min, the reaction was stopped in its linear phase by addition of trichloroacetic acid solution (40 mL, 30% w/v), and the samples were incubated at 50 °C for 30 min. After centrifugation, 80 µl of supernatant from each well were used for HPLC analysis. The mobile phase for HPLC analysis was composed of 50% (v/v) of methanol and 50% of sodium citrate buffer (40 mM, pH 2.4) containing 400 µM sodium dodecyl sulphate. […] All assays were carried out in duplicates. The activity (Act) of each compound was calculated as Act = RT log(IC50) in analogy to the relation between the binding free energy and the Ki value. The ligand efficiency (LE) was calculated as LE = −Act/NHA, where NHA is the number of non-hydrogen atoms (heavy atoms) in the compound.

[2] = Compound solubility (qualitative remarks); assay type: physicochemical
HEK 293 T cells [3] = assay: Cell viability / cellular toxicity (DAPI staining, cytometry); assay type: cell-based, human; conditions: 7 h
Experimental: (§1) We tested the cellular hIDO1 inhibitory activity and toxicity of 30 active compounds at a single concentration (Figure 6 and Table 8). As some of the aniline derivatives reacted with Ehrlich’s reagent (p-dimethylaminobenzaldehyde, p-DMAB) used to quantify kynurenine, the kynurenine content of these samples was determined by HPLC. To be able to detect also weak inhibition, compounds were tested at the high concentration of 200 µM (Figure 6A and B, filled bars), except for less soluble compounds (52, 148, 149 and 153), which were tested at a concentration of 50 µM (Figure 6A and B, empty bars).
Following DMSO (negative control) or inhibitor treatments, apoptotic cells were detected by 4′,6-diamidino-2-phenylindole (DAPI) staining. Briefly, after 7 h of incubation, cells were washed with PBS, resuspended in PBS with 1 µg/mL DAPI and immediately analysed using a BD LSR II cytometer. A 405 nm laser with 450/50 nm bandpass filter was used to collect data.

hIDO1 [4] = biological target: T2, hIDO1 (Homo sapiens, UniProt P14902); assay: Cellular hIDO1 inhibition (kynurenine production) in transiently transfected HEK 293 T cells; assay type: cell-based
T2 construct: The full ORF of hIDO1 was cloned into the mammalian expression vector pcDNA6/myc-His; myc-His (vector-encoded); host or cells: HEK 293 T
T2 sequence (P14902 whole entry): as above
Experimental: as §1
The cDNA encoding hIDO1 (NCBI, NM 0021464.3) was purchased from Origene as pCMV6-Entry vector (RC206592). The full ORF of hIDO1 was cloned into the mammalian expression vector pcDNA6/myc-His from Invitrogen. Human embryonic kidney 293 T (HEK 293 T) cells were transiently transfected with the plasmid construct encoding hIDO1. A 75 cm^2 flask containing HEK 293 T cells at a confluency of 70% was transfected with jetPEI DNA transfection reagent (Polyplus-transfection), according to manufacturer’s protocol. A total of 20 µg of pcDNA-IDO1 along with 5 µg of pcDNA-GFP plasmid were used for the transfection; GFP was used to evaluate transfection efficiency prior to the cellular assays. 16–18 h post-transfection the 293 T cells were detached with trypsin, centrifuged, and re-suspended in 25 mL of DMEM medium without phenol red, supplemented with penicillin and streptomycin, 10% foetal bovine serum and 1 mM pyruvate (Gibco). Subsequently, 100 µL of cells were distributed to each well of two 96-well round-bottom plates that had been pre-loaded with 100 µL DMEM and the small organic test molecule in DMSO (for a final DMSO concentration of 2%). DMEM medium contains 78 µM L-Trp and was supplemented with 500 µM of L-Trp. Cells transfected with hIDO1 were incubated for 7 h at 37 °C in a CO2 incubator. The reaction was stopped in its linear phase by adding trichloroacetic acid (TCA) to the medium at a final concentration of 4%. Plates were centrifuged for 15 min at 4,000 rpm. 100 µL of supernatant was added to 100 µL of 2% (w/v) DMAB in glacial acetic acid. After 10 min the absorbance was measured at a wavelength of 480 nm to detect kynurenine formation. Alternatively, kynurenine content was determined by HPLC as done for the enzymatic assay.

hIDO1 [5] = biological target: T2, hIDO1; assay: Cellular hIDO1 inhibition (kynurenine production) in transiently transfected HEK 293 T cells; assay type: cell-based; conditions: HEK 293 T cells transfected with hIDO1; read-out: Cell. IC50 [ μ M] (SD)
HEK 293 T cells [6] = conditions: previously determined, 200 µM, cited from earlier work
hIDO1 [7] = biological target: T2, hIDO1; conditions: previously determined, 200 µM, cited from earlier work
murine IDO2 = tested on: murine IDO2; set-up: method as in PMID 27469130; conditions: murine IDO2, cellular; cited from earlier work
TDO = tested on: TDO; set-up: method as in PMID 22616902; conditions: undetectable activity; cited from earlier work
[8] = L-Trp 100 µM, 0.01% Triton X-100, 5% DMSO, 20 min at room temperature, pH 6.5, duplicates, read-out: IC50 [ μ M] (SD)
[9] = values of Panda and co-workers, not reproduced here, read-out: published IC50 values
[10] = ref 3 of Supporting Information (= main text ref 62)
[11] = ref 3 of Supporting Information (Röhrig et al. 2016)
[12] = ref 1 of Supporting Information (Röhrig et al. 2021)

Row | SMILES | IC50 [1, 8] | LE [kcal/mol/HA] [1] [kcal/mol/HA] | solubility (in words) [2] | melting point [°C] | other results
1 | Clc1ccc(Nc2cnn[nH]2)cc1 [Compound 10, reference compound] | 56 µM | 0.44 | – | – | IC50 (IDO1; read-out: IC50 value in the original publication): 11.3 µM
2 | Clc1cccc(-c2nn[nH]c2-c2cccc(Cl)c2)c1 [Compound 64, 4,5-Bis(3-chlorophenyl)-1,2,3-triazole, reference compound] | > 50 µM | – | – | – | IC50 (IDO1; [9]): 2.51 µM
3 | O=C(Nc1ccc(Cl)cc1-c1nc[nH]n1)c1ccccc1 [Compound 153, N-(4-Chloro-2-(1H-1,2,4-triazol-3-yl)phenyl)benzamide] | 9.4 µM and 9.3 µM | – | low solubility; also recorded: less soluble | – | Tox. [%] (HEK 293 T cells [3]; compound 50 µM): 5.9 (8) %; inhibition at 50 µM (hIDO1 [4]): 87%
4 | NC(=O)c1[nH]nnc1-c1ccc(Cl)cc1 [Compound 66, 4–(4-Chlorophenyl)-1H-1,2,3-triazole-5-carboxamide, reference compound] | 800 µM | 0.28 | – | – | IC50 (IDO1; [9]): 0.62 µM
5 | CCCC(=O)Nc1ccc(Cl)cc1-c1nc[nH]n1 [Compound 148, N-(4-Chloro-2-(1H-1,2,4-triazol-3-yl)phenyl)butyramide] | 24 µM and 25 µM | 0.35 | less soluble | 156 to 158 | Tox. [%] (HEK 293 T cells [3]; compound 50 µM): 17 (2) %; inhibition at 50 µM (hIDO1 [4]): 93%
6 | Clc1cccc(-c2cnn[nH]2)c1/C=C/C1CCCCC1 [Compound 42] | 260 µM | 0.24 | – | – | Tox. [%] (HEK 293 T cells [6]; [10]): 5%; Inh. [%] (hIDO1 [7]; [11]): 56%; IC50 (murine IDO2): 110 µM
7 | Oc1ccccc1-c1nnc[nH]1 [Compound 138] | – | 0.51 | – | – | Tox. [%] (HEK 293 T cells [6]; [12]): 6%; Inh. [%] (hIDO1 [7]; [12]): 52%
8 | O=C(Nc1ccc(Cl)cc1-c1nc[nH]n1)C1CCCC1 [Compound 151, N-(4-Chloro-2-(1H-1,2,4-triazol-3-yl)phenyl)cyclopentanecarboxamide] | > 100 µM | – | strongly reduced solubilities | 197 to 199 | –
9 | O=C(Nc1ccc(Cl)cc1-c1nc[nH]n1)C1CCC1 [Compound 150, N-(4-Chloro-2-(1H-1,2,4-triazol-3-yl)phenyl)cyclobutanecarboxamide] | > 100 µM | – | strongly reduced solubilities | 201 to 203 | –
10 | CCOC(=O)c1[nH]nnc1-c1ccc(Cl)cc1 [Compound 65, reference compound] | > 1000 µM | – | – | – | IC50 (IDO1; [9]): 0.39 µM
11 | Oc1ccc(Cl)cc1-c1cnn[nH]1 [Compound 9] | – | – | – | – | Tox. [%] (HEK 293 T cells [6]; [12]): 4%; activities on TDO (TDO): > 100 µM; Inh. [%] (hIDO1 [7]; [12]): 100%
12 | Clc1cccc(-c2cnn[nH]2)c1 [Compound 30] | – | 0.73 | – | – | Tox. [%] (HEK 293 T cells [6]; [12]): 0%; Inh. [%] (hIDO1 [7]; [12]): 95%

The next lines start with results.

Row | IC50 [1, 8] | LE [kcal/mol/HA] [1] [kcal/mol/HA] | solubility (in words) [2] | melting point [°C] | SMILES | other results
13 | 0.034 µM | 0.73 | – | 243 to 246 | Nc1cc(F)c(Br)cc1-c1nc[nH]n1 [Compound 144, 4-Bromo-5-fluoro-2-(1H-1,2,4-triazol-3-yl)aniline] | Tox. [%] (HEK 293 T cells [3]; compound 200 µM): 17 (2) %; IC50 (hIDO1 [5]): 0.034 µM; inhibition at 200 µM (hIDO1 [4]): 100%; IC50 ([1]; read-out: enzymatic IC50): 0.034 µM
14 | 49 µM | 0.29 | – | – | Clc1cccc(-c2cnn[nH]2)c1/C=C/c1ccccc1 [Compound 41] | Tox. [%] (HEK 293 T cells [6]; [10]): 58%; Inh. [%] (hIDO1 [7]; [11]): 32%
15 | 0.15 µM | 0.72 | – | – | Nc1ccc(F)cc1-c1nc[nH]n1 [Compound 143, 4-Fluoro-2-(1H-1,2,4-triazol-3-yl)aniline] | Tox. [%] (HEK 293 T cells [3]; compound 200 µM): 18 (0.5) %; IC50 (hIDO1 [5]): 0.25 µM; inhibition at 200 µM (hIDO1 [4]): 86%
16 | 0.81 µM | 0.64 | – | – | Nc1c(F)cccc1-c1nc[nH]n1 [Compound 140, 2-Fluoro-6-(1H-1,2,4-triazol-3-yl)aniline] | Tox. [%] (HEK 293 T cells [3]; compound 200 µM): 17 (3) %; IC50 (hIDO1 [5]): 1.2 µM; inhibition at 200 µM (hIDO1 [4]): 100%
17 | 0.49 µM | 0.48 | less soluble | 183 to 186 | O=C(Nc1ccc(Cl)cc1-c1nc[nH]n1)C1CC1 [Compound 149, N-(4-Chloro-2-(1H-1,2,4-triazol-3-yl)phenyl)cyclopropanecarboxamide] | Tox. [%] (HEK 293 T cells [3]; compound 50 µM): 19 (2) %; inhibition at 50 µM (hIDO1 [4]): 100%
18 | 33 µM | 0.44 | less soluble | 190 to 192 | Clc1cc(Cl)c(-c2c[nH]nn2)cc1Cl [Compound 52, 4–(2,4,5-Trichlorophenyl)-1,2,3-triazole] | Tox. [%] (HEK 293 T cells [3]; compound 50 µM): 7.9 (1) %; inhibition at 50 µM (hIDO1 [4]): 44%
19 | 9.5 µM | 0.36 | – | – | Clc1cccc(-c2cnn[nH]2)c1CCC1CCCC1 [Compound 40] | Tox. [%] (HEK 293 T cells [6]; [10]): 22%; Inh. [%] (hIDO1 [7]; [11]): 71%
